According to patent US11529362B2, “Physiologically balanced injectable formulations of fosnetupitant” (HELSINN HEALTHCARE SA, priority 2016, dated 2022):
Where two headings read alike, the source gives them in different places.

Key:
[1] = presence of EDTA, in proportion to its concentration in solution
[2] = Akynzeo prescribing information, cited from earlier work
[3] = p-Netu solubility studies; format: physicochemical; settings: in water at acidic pH values less than 7.0
Excerpt: A study was undertaken to determine the maximum allowable concentration of netupitant in aqueous solutions of p-Netu, above which unacceptable precipitation is observed.

Q: For O=C([O-])CN(CCN(CC(=O)[O-])CC(=O)O)CC(=O)O.[Na+].[Na+] [EDTA, Disodium edetate], which “conversion of p-Netu to 14-Netu” value [1] is on record?
A: reduced

Q: Which systemic exposure ([2]; dose increase from 10 mg to 300 mg) does the source give for Cc1ccccc1-c1cc(N2CCN(C)CC2)ncc1N(C)C(=O)C(C)(C)c1cc(C(F)(F)F)cc(C(F)(F)F)c1 [netupitant, 2-(3,5-bis(trifluoromethyl)phenyl)-N,2-dimethyl-N-(6-(4-methylpiperazin-1-yl)-4-(o-tolyl)pyridine-3-yl)propanamide] here?
A: greater than dose-proportional increase

Q: What about the systemic exposure ([2]; dose increase from 300 mg to 450 mg) of the same molecule?
A: dose-proportional increase

Q: For Cc1ccccc1-c1cc(N2CC[N+](C)(COP(=O)([O-])O)CC2)ncc1N(C)C(=O)C(C)(C)c1cc(C(F)(F)F)cc(C(F)(F)F)c1 [p-Netu, 4-(5-(2-(3,5-bis(trifluoromethyl)phenyl)-N,2-dimethylpropanamido)-4-(o-tolyl)pyridin-2-yl)-1-methyl-1-((phosphonooxy)methyl) piperazin-1-ium], which p-Netu solubility [3] is on record?
A: drops significantly
